Results published in US20170143701A1, “CARBOHYDRATE METABOLISM-AMELIORATING AGENT” (SUNTORY HOLDINGS LIMITED, priority 2014, published 2017).

Key:
[1] = test system: NCI-H716 cells; assay: In vitro GLP-1 secretion-accelerating action: amount of active GLP-1 secreted (ELISA); type: cell-based; conditions: 1 hour; for Significant difference (p < 0.05) vs control group, amount of active GLP-1 secreted: 10 mM, Student's t-test; for Amount of active GLP-1 secreted (relative value to control group as 100), average value: cyclic dipeptide 10 mM with 10 μM Sitagliptin phosphate, group with no cyclic dipeptide = 100
Description: Among the cyclic dipeptides, 92 highly water-soluble cyclic dipeptides were used in the following experiment. In each well of a Poly-L-Lysine 96-well plate, NCI-H716 cells suspended in 100 μL of a DMEM (with 10% FBS, 2 mM glutamine, and 1% antibiotics added in advance) were seeded at 0.5×10^5 cells/well, and cultured in a CO2 incubator (manufactured by ESPEC CORP.) for 48 hours. After washing with PBS(+), 100 μL of a PBS(+) solution with each cyclic dipeptide at a final concentration of 10 mM and 10 μM of Sitagliptin phosphate added therein was added to the cells. After 1 hour, the resultant solution was recovered, and the amount of active GLP-1 in the solution was measured by using the ELISA kit. In the analysis, the amount of active GLP-1 for a group with no cyclic dipeptide added was defined as 100, and relative values thereto were used.

[2] = test system: C57/BL6J mice; assay: In vivo plasma GLP-1 level-increasing action: plasma active GLP-1 level (ELISA) after oral administration; conditions: 10 mg/kg oral; for Significant difference (p < 0.05) vs control group, plasma active GLP-1 level: 30 minutes, Student's t-test; for Plasma active GLP-1 level (relative value to control group as 100), average value: blood 30 minutes after, 0.5% CMC-Na group = 100
Description: Seven-week-old male C57/BL6J mice were purchased from CLEA Japan, Inc. for use, and they were subjected to an experiment after 1 week of a habituation period.
After the habituation period, the mice were subjected to 5.5 hours of food deprivation and 2 hours of water deprivation. Thereafter, a cyclic dipeptide dissolved or suspended in a 0.5% CMC-Na aqueous solution in 10 mg/kg was orally administered to each mouse forcibly. After 30 minutes, the blood was collected from the abdominal vena cava under anesthesia, and 1 μL of heparin sodium and 1 μL of 10 mM Sitagliptin phosphate were added to each collected blood, which was then subjected to centrifugation at 8000 rpm for 10 minutes to recover the plasma, and the plasma active GLP-1 level was measured by using the ELISA kit. In the analysis, the active GLP-1 level for a group administered with 0.5% CMC-Na aqueous solution was defined as 100, and relative values thereto were used.

With `CC1NC(=O)C(C(C)O)NC1=O` (stereo not drawn) [compound 114, Cyclo(Thr-Ala)] the “Significant difference (p < 0.05) vs control group, amount of active GLP-1 secreted” value ([1]; Table 3, Experiment 3) was “No” and the “Amount of active GLP-1 secreted (relative value to control group as 100), average value” ([1]; Table 3, Experiment 3) was 89.

In the case of `CC(C)[C@@H]1NC(=O)[C@@H]2CCCN2C1=O` [compound 10, Cyclo(Val-Pro)], the “Significant difference (p < 0.05) vs control group, amount of active GLP-1 secreted” value ([1]; Table 1, Experiment 1) is reported as “No” and the “Amount of active GLP-1 secreted (relative value to control group as 100), average value” ([1]; Table 1, Experiment 1) is reported as 95.

In the case of `O=C1NCC(=O)N2CCC[C@@H]12` [compound 4, cyclo-glycyl-proline], the “Significant difference (p < 0.05) vs control group, amount of active GLP-1 secreted” value ([1]; Table 5, Experiment 5) is reported as “Yes” and the “Amount of active GLP-1 secreted (relative value to control group as 100), average value” ([1]; Table 5, Experiment 5) is reported as 157.

`NC(N)=NCCC[C@@H]1NC(=O)[C@H](Cc2cnc[nH]2)NC1=O` [compound 112, Cyclo(Arg-His)] was tested, and the “Significant difference (p < 0.05) vs control group, amount of active GLP-1 secreted” value ([1]; Table 3, Experiment 3) was “No” and the “Amount of active GLP-1 secreted (relative value to control group as 100), average value” ([1]; Table 3, Experiment 3) was 106.

`NC(=O)C[C@@H]1NC(=O)[C@H](Cc2cnc[nH]2)NC1=O` [compound 111, cyclo-asparaginyl-histidine] was tested, and the “Significant difference (p < 0.05) vs control group, amount of active GLP-1 secreted” value ([1]; Table 3, Experiment 3) was “Yes” and the “Amount of active GLP-1 secreted (relative value to control group as 100), average value” ([1]; Table 3, Experiment 3) was 341.

For `O=C1N[C@@H](Cc2ccccc2)C(=O)N[C@H]1CO` [compound 7, Cyclo(Phe-Ser)], the “Significant difference (p < 0.05) vs control group, amount of active GLP-1 secreted” value ([1]; Table 1, Experiment 1) was “No” and the “Amount of active GLP-1 secreted (relative value to control group as 100), average value” ([1]; Table 1, Experiment 1) was 106.

`NC(N)=NCCC[C@@H]1NC(=O)[C@H](CO)NC1=O` [compound 159, cyclo-arginyl-serine] was tested, and the “Significant difference (p < 0.05) vs control group, amount of active GLP-1 secreted” value ([1]; Table 3, Experiment 3) was “Yes” and the “Amount of active GLP-1 secreted (relative value to control group as 100), average value” ([1]; Table 3, Experiment 3) was 135.

For `CC(C)CC1NC(=O)C(CCC(N)=O)NC1=O` (stereo not drawn) [compound 152, cyclo-glutaminyl-leucine], the “Significant difference (p < 0.05) vs control group, plasma active GLP-1 level” value ([2]; Table 15, Experiment 10) was “Yes” and the “Plasma active GLP-1 level (relative value to control group as 100), average value” ([2]; Table 15, Experiment 10) was 282.

In the case of `CC(C)[C@@H]1NC(=O)[C@H](Cc2c[nH]c3ccccc23)NC1=O` [compound 61, Cyclo(Trp-Val)], the “Significant difference (p < 0.05) vs control group, plasma active GLP-1 level” value ([2]; Table 8, Experiment 3) is reported as “No” and the “Plasma active GLP-1 level (relative value to control group as 100), average value” ([2]; Table 8, Experiment 3) is reported as 117.

With `C[C@@H](O)[C@@H]1NC(=O)[C@H](Cc2ccc(O)cc2)NC1=O` [compound 90, cyclo-threonyl-tyrosine] the “Significant difference (p < 0.05) vs control group, plasma active GLP-1 level” value ([2]; Table 12, Experiment 7) was “Yes” and the “Plasma active GLP-1 level (relative value to control group as 100), average value” ([2]; Table 12, Experiment 7) was 466.

`CSCCC1NC(=O)C(C)NC1=O` (stereo not drawn) [compound 125, cyclo-methionyl-alanine] was tested, and the “Significant difference (p < 0.05) vs control group, plasma active GLP-1 level” value ([2]; Table 14, Experiment 9) was “Yes”.

In the case of `O=C1N[C@@H](Cc2ccc(O)cc2)C(=O)N[C@H]1CO` [compound 29, Cyclo(Ser-Tyr)], the “Significant difference (p < 0.05) vs control group, plasma active GLP-1 level” value ([2]; Table 9, Experiment 4) is reported as “No” and the “Plasma active GLP-1 level (relative value to control group as 100), average value” ([2]; Table 9, Experiment 4) is reported as 95.

For `O=C1CNC(=O)C(Cc2ccc(O)cc2)N1` (stereo not drawn) [compound 42, Cyclo(Tyr-Gly)], the “Significant difference (p < 0.05) vs control group, plasma active GLP-1 level” value ([2]; Table 10, Experiment 5) was “No” and the “Plasma active GLP-1 level (relative value to control group as 100), average value” ([2]; Table 10, Experiment 5) was 97.

For `CC(C)[C@@H]1NC(=O)[C@H](C(C)C)NC1=O` [compound 11, Cyclo(Val-Val)], the “Significant difference (p < 0.05) vs control group, plasma active GLP-1 level” value ([2]; Table 9, Experiment 4) was “No” and the “Plasma active GLP-1 level (relative value to control group as 100), average value” ([2]; Table 9, Experiment 4) was 100.

`CCC(C)C1NC(=O)C(Cc2ccccc2)NC1=O` (stereo not drawn) [compound 55, Cyclo(Ile-Phe)] was tested, and the “Significant difference (p < 0.05) vs control group, plasma active GLP-1 level” value ([2]; Table 10, Experiment 5) was “No” and the “Plasma active GLP-1 level (relative value to control group as 100), average value” ([2]; Table 10, Experiment 5) was 90.

With `CC(C)C1NC(=O)C(CCC(=O)O)NC1=O` (stereo not drawn) [compound 118, Cyclo(Val-Glu)] the “Significant difference (p < 0.05) vs control group, plasma active GLP-1 level” value ([2]; Table 13, Experiment 8) was “No” and the “Plasma active GLP-1 level (relative value to control group as 100), average value” ([2]; Table 13, Experiment 8) was 112.

In the case of `CC(C)C1NC(=O)C(CO)NC1=O` (stereo not drawn) [compound 132, cyclo-valyl-serine], the “Significant difference (p < 0.05) vs control group, plasma active GLP-1 level” value ([2]; Table 14, Experiment 9) is reported as “Yes” and the “Plasma active GLP-1 level (relative value to control group as 100), average value” ([2]; Table 14, Experiment 9) is reported as 129.
